# Reference: patent US20160009755A1, “CYRRHETINIC ALKYL ESTERS AND PROTECTED DERIVATIVES THEREOF” (priority 2013, published 2016)
# Tested on: secreted IL-8 in normal human epidermal keratinocytes (NHEK)
# Experiment: IL-8 secretion in PMA-stimulated NHEK (anti-inflammatory test)
# Assay type: cell-based
# Protocol: In an exemplary test, NHEK were cultured in a medium for 24 hours. […] Then the culture medium was removed and replaced with another culture medium containing or not (control) the […] methyl ester or the reference compound and containing an inflammatory inducer (PMA) and the cells were incubated for 24 hours. A control without inducer was performed in parallel. After incubation, the culture supernatants were collected in order to measure the quantity of secreted IL-8.
structure (smiles),measurement,setting,value
"COC(=O)[C@@]1(C)CC[C@]2(C)CC[C@]3(C)C(=CC(=O)[C@@H]4[C@@]5(C)CC[C@H](O)C(C)(C)[C@@H]5CC[C@]43C)[C@@H]2C1 [Cyrrhetinic methyl ester, cyrrhetinic methyl ester]",% Stimulated Control,15.625 μM,42%
same,Avg. IL-8,15.625 μM,1349 pg/mL
same,% Stimulated Control,31.25 μM,28%
same,Avg. IL-8,31.25 μM,907 pg/mL
same,% Stimulated Control,62.5 μM,28%
same,Avg. IL-8,62.5 μM,902 pg/mL
same,% Inhibition,"IL-8 secretion, 15.625 μM",59%
same,% Inhibition,"IL-8 secretion, 31.25 μM",73%
same,% Inhibition,"IL-8 secretion, 62.5 μM",73%
same,inhibition of IL-8 secretion,maximum over tested concentrations (up to),≤ 73%
"CC1(C)[C@@H](O)CC[C@]2(C)[C@H]3C(=O)C=C4[C@@H]5C[C@@](C)(C(=O)O)CC[C@]5(C)CC[C@@]4(C)[C@]3(C)CC[C@@H]12 [Glycyrrhetinic acid, glycyrrhetinic acid]",% Stimulated Control,0.5 μM,95%
same,Avg. IL-8,0.5 μM,3037 pg/mL
same,% Stimulated Control,1 μM,108%
same,Avg. IL-8,1 μM,3470 pg/mL
same,% Stimulated Control,2 μM,139%
same,Avg. IL-8,2 μM,4450 pg/mL
same,inhibition at 0.5 µM,"Homo sapiens, IL-8 secretion, 0.5 μM",5%
same,inhibition at 1 µM,"Homo sapiens, IL-8 secretion, 1 μM",-9%
same,inhibition at 2 µM,"Homo sapiens, IL-8 secretion, 2 μM",-40%
"CN[C@@H]1C[C@H]2O[C@@](C)([C@@H]1OC)n1c3ccccc3c3c4c(c5c6ccccc6n2c5c31)C(=O)NC4 [Staurosporine, staurosporine]",% Stimulated Control,10^−9M,18%
same,Avg. IL-8,10^−9M,588 pg/mL
